Earlier results as cited in patent US12246054B2, “Method of treating diseases” (Amryt Endo, Inc., priority 2015, dated 2025).

How the values were obtained:
[1] = in vivo
[2] = tested on: idiopathic intracranial hypertension; settings: IIH patients; injections

In the case of `C[C@@H](O)[C@@H]1NC(=O)[C@H](CCCCN)NC(=O)[C@@H](Cc2c[nH]c3ccccc23)NC(=O)[C@H](Cc2ccccc2)NC(=O)[C@@H](NC(=O)[C@H](N)Cc2ccccc2)CSSC[C@@H](C(=O)N[C@H](CO)[C@@H](C)O)NC1=O` [octreotide], the “acute rebound GH hypersecretion” value [1] is listed as “absence of acute rebound GH hypersecretion”, the circulating half-life [1] is listed as 2 h and the “Patients in whom headache and papilledema subsided and visual disturbances improved (response rate)” value [2] is listed as “about 90%”.
